Data: ChEMBL document CHEMBL1909294, “Translating clinical findings into knowledge in drug safety evaluation--drug induced liver injury prediction system (DILIps)” (PLoS Comput Biol, 2011)
Where a SMILES comes first, the peptide text is derived from it. Bridges are numbered along the chain shown (N, C = ends). [ ]: non-standard residue; d: D form. hArg = N=C(N)NCCCC[C@H](N)C(=O)O; Mpa = O=C(O)CCS

Key:
[1] = test system: Hepatotoxicity;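 as to HepSE cirrhosis: cirrhosis hepatic side effect score taken from the DILIps (drug-induced liver injury prediction) training set; call rule not given here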; as to HepSE hepatic failure: call rule not given here;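 as to HepSE hepatitis: Hepatitis-related hepatic side effect score taken from the training data of DILIps, a prediction system for drug-induced liver injury; call rule not given here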;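 as to HepSE jaundice: Jaundice-related hepatic side-effect score drawn from the training data of the DILIps (drug-induced liver injury prediction system); call rule not given here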; as to HepSE liver disease: call rule not given here;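 as to HepSE liver fatty: hepatic side effect score for fatty liver, taken from the DILIps training set for predicting drug-induced liver injury; call rule not given here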;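 as to HepSE liver function tests abnormal: hepatic side effect score taken from the DILIps (drug-induced liver injury prediction system) training data, here covering abnormal liver function test findings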
[2] = test system: Hepatotoxicity; remark: listed apart in the source;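 as to HepSE cirrhosis: cirrhosis hepatic side effect score taken from the DILIps (drug-induced liver injury prediction) training set; call rule not given here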; as to HepSE hepatic failure: call rule not given here;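 as to HepSE hepatitis: Hepatitis-related hepatic side effect score taken from the training data of DILIps, a prediction system for drug-induced liver injury; call rule not given here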;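 as to HepSE jaundice: Jaundice-related hepatic side-effect score drawn from the training data of the DILIps (drug-induced liver injury prediction system); call rule not given here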; as to HepSE liver disease: call rule not given here;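 as to HepSE liver fatty: hepatic side effect score for fatty liver, taken from the DILIps training set for predicting drug-induced liver injury; call rule not given here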;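 as to HepSE liver function tests abnormal: hepatic side effect score taken from the DILIps (drug-induced liver injury prediction system) training data, here covering abnormal liver function test findings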
[3] = test system: Hepatotoxicity; remark: listed apart in the source;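 as to HepSE cirrhosis: cirrhosis hepatic side effect score taken from the DILIps (drug-induced liver injury prediction) training set; call rule not given here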; as to HepSE hepatic failure: call rule not given here;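 as to HepSE hepatitis: Hepatitis-related hepatic side effect score taken from the training data of DILIps, a prediction system for drug-induced liver injury; call rule not given here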;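 as to HepSE jaundice: Jaundice-related hepatic side-effect score drawn from the training data of the DILIps (drug-induced liver injury prediction system); call rule not given here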;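 as to HepSE liver fatty: hepatic side effect score for fatty liver, taken from the DILIps training set for predicting drug-induced liver injury; call rule not given here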;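 as to HepSE liver function tests abnormal: hepatic side effect score taken from the DILIps (drug-induced liver injury prediction system) training data, here covering abnormal liver function test findings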
[4] = test system: Hepatotoxicity; remark: listed apart in the source;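 as to HepSE cirrhosis: cirrhosis hepatic side effect score taken from the DILIps (drug-induced liver injury prediction) training set; call rule not given here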; as to HepSE hepatic failure: call rule not given here;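 as to HepSE hepatitis: Hepatitis-related hepatic side effect score taken from the training data of DILIps, a prediction system for drug-induced liver injury; call rule not given here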;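 as to HepSE jaundice: Jaundice-related hepatic side-effect score drawn from the training data of the DILIps (drug-induced liver injury prediction system); call rule not given here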;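 as to HepSE liver fatty: hepatic side effect score for fatty liver, taken from the DILIps training set for predicting drug-induced liver injury; call rule not given here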;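 as to HepSE liver function tests abnormal: hepatic side effect score taken from the DILIps (drug-induced liver injury prediction system) training data, here covering abnormal liver function test findings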
[5] = test system: Hepatotoxicity; remark: listed apart in the source; as to HepSE hepatic failure: call rule not given here
[6] = test system: Hepatotoxicity; remark: listed apart in the source; as to HepSE hepatic failure: call rule not given here
[7] = test system: Hepatotoxicity; remark: listed apart in the source
[8] = test system: Hepatotoxicity; remark: listed apart in the source
[9] = test system: Hepatotoxicity; remark: listed apart in the source
[10] = test system: Hepatotoxicity; remark: listed apart in the source
[11] = test system: Hepatotoxicity; remark: listed apart in the source
[12] = test system: Hepatotoxicity; remark: listed apart in the source
[13] = test system: Hepatotoxicity; remark: listed apart in the source
[14] = test system: Hepatotoxicity; remark: listed apart in the source

Row | Structure (SMILES) | HepSE_hepatitis [1] | HepSE_liver fatty [2] | HepSE_liver function tests abnormal [3] | HepSE_jaundice [4] | HepSE_cirrhosis [5] | HepSE_hepatic failure [6] | HepSE_liver disease [7] | HepSE_cholecystitis [8] | HepSE_elevated liver function tests [9] | HepSE_Combined Scores [10] | HepSE_hepatomegaly [11] | HepSE_bilirubinemia [12] | HepSE_hepatic necrosis [13] | HepSE_cholelithiasis [14] | other results
1 | CC(C)(C)NC(=O)[C@H]1CC[C@H]2[C@@H]3CC[C@H]4NC(=O)C=C[C@]4(C)[C@H]3CC[C@]12C [FINASTERIDE] | 0 | 0 | 0 | 0 | 0 | 0 | 0 | 0 | 0 | 0 | 0 | 0 | 0 | 0 | –
2 | O=P(O)(O)C(Sc1ccc(Cl)cc1)P(=O)(O)O [TILUDRONIC ACID] | 0 | 0 | 0 | 0 | 0 | 0 | 0 | 0 | 0 | 0 | 0 | 0 | 0 | 0 | –
3 | C[N+](C)(C)CC(=O)O [BETAINE] | 0 | 0 | 0 | 0 | 0 | 0 | 0 | 0 | 0 | 0 | 0 | 0 | 0 | 0 | –
4 | CCC[C@@H]1C[C@@H](C(=O)N[C@@H]([C@H]2O[C@H](SC)[C@H](O)[C@@H](O)[C@H]2O)[C@H](C)Cl)N(C)C1 [CLINDAMYCIN] | 0 | 0 | 0 | 1 | 0 | 0 | 0 | 0 | 0 | 1 | 0 | 0 | 0 | 0 | –
5 | Nc1nc(F)nc2c1ncn2[C@@H]1O[C@H](CO)[C@@H](O)[C@@H]1O [FLUDARABINE] | 0 | 0 | 0 | 0 | 0 | 1 | 0 | 0 | 0 | 2 | 0 | 0 | 0 | 1 | –
6 | CN[C@H]1CC[C@@H](c2ccc(Cl)c(Cl)c2)c2ccccc21 [SERTRALINE] | – | – | – | – | – | – | – | – | – | – | – | – | – | – | HepSE_hepatitis ([1]; Liver): 1; HepSE_liver fatty ([2]; Liver): 0; HepSE_liver function tests abnormal ([3]; Liver): 0; HepSE_jaundice ([4]; Liver): 1; HepSE_cirrhosis ([5]; Liver): 0; HepSE_hepatic failure ([6]; Liver): 1; HepSE_liver disease ([7]; Liver): 0; HepSE_cholecystitis ([8]; Liver): 0; HepSE_elevated liver function tests ([9]; Liver): 0; HepSE_Combined Scores ([10]; Liver): 4; HepSE_hepatomegaly ([11]; Liver): 1; HepSE_bilirubinemia ([12]; Liver): 0; HepSE_hepatic necrosis ([13]; Liver): 0; HepSE_cholelithiasis ([14]; Liver): 0
7 | N=C(N)NCCCC[C@@H]1NC(=O)CCSSC[C@@H](C(N)=O)NC(=O)[C@@H]2CCCN2C(=O)[C@H](Cc2c[nH]c3ccccc23)NC(=O)[C@H](CC(=O)O)NC(=O)CNC1=O [EPTIFIBATIDE] ([Mpa][hArg]GDWPC-NH2; disulfide 1-7) | 0 | 0 | 0 | 0 | 0 | 0 | 0 | 0 | 0 | 0 | 0 | 0 | 0 | 0 | –
8 | COc1cc2nc(N3CCN(C(=O)C4CCCO4)CC3)nc(N)c2cc1OC (configuration not stated) [TERAZOSIN] | 0 | 0 | 0 | 1 | 0 | 0 | 0 | 0 | 0 | 1 | 0 | 0 | 0 | 0 | –
9 | FC(F)OC(F)C(F)(F)F (configuration not stated) | 1 | 0 | 0 | 0 | 0 | 1 | 0 | 0 | 0 | 2 | 0 | 0 | 0 | 0 | –
10 | CC(CN1c2ccccc2Sc2ccccc21)N(C)C (configuration not stated) [PROMETHAZINE] | 0 | 0 | 0 | 1 | 0 | 0 | 0 | 0 | 0 | 1 | 0 | 0 | 0 | 0 | –
11 | O=C(O)CCCc1ccc(N(CCCl)CCCl)cc1 [CHLORAMBUCIL] | 0 | 0 | 0 | 1 | 0 | 0 | 0 | 0 | 0 | 1 | 0 | 0 | 0 | 0 | –
12 | CC(=O)OCC(=O)[C@@]12OC(C)(C)O[C@@H]1C[C@H]1[C@@H]3C[C@H](F)C4=CC(=O)C=C[C@]4(C)[C@@]3(F)[C@@H](O)C[C@@]12C [FLUOCINONIDE] | 0 | 0 | 0 | 0 | 0 | 0 | 0 | 0 | 0 | 0 | 0 | 0 | 0 | 0 | –
13 | CCOC(=O)[C@H](CCc1ccccc1)N[C@H]1CCCN2CCC[C@@H](C(=O)O)N2C1=O [CILAZAPRIL] | 1 | 0 | 0 | 0 | 0 | 0 | 0 | 0 | 0 | 1 | 0 | 0 | 0 | 0 | –
